Assay results taken from the CheMixHub viscosity set.

Assay: xn = mol fraction of the nth substance listed

CNc1ccccc1 + CCCCOCCO
viscosity [mPa·s], 101.3 kPa
Settings	x2 = 0.0992	x2 = 0.2016	x2 = 0.3298	x2 = 0.4032	x2 = 0.4978	x2 = 0.6441	x2 = 0.7771	x2 = 0.8935
298 K	2.01	2.089	2.213	2.314	2.425	2.589	2.709	2.788
303 K	1.756	1.811	1.918	1.999	2.094	2.232	2.319	2.395
308 K	1.567	1.613	1.699	1.753	1.836	1.951	2.049	2.111
313 K	1.398	1.433	1.502	1.55	1.619	1.718	1.792	1.851
318 K	1.256	1.302	1.352	1.444	1.495	1.576	1.661	1.696

CC(C)Cc1ccc(C(C)C(=O)O)cc1 (configuration not stated) + CCCO
viscosity [mPa·s], 100 kPa
Settings	x1 = 0.00242	x1 = 0.00365	x1 = 0.00483	x1 = 0.006021	x1 = 0.007225	x1 = 0.0096	x1 = 0.012
298.15 K	1.95	1.956	1.963	1.971	1.979	1.995	2.014
308.15 K	1.529	1.538	1.548	1.56	1.575	1.605	1.639

CC[n+]1ccccc1.N#C[N-]C#N + CCCO
Settings	viscosity [mPa·s]
313.15 K, 100 kPa, x1 = 0.8905	9.945

CNc1ccccc1 + CCCO
viscosity [mPa·s], 101.33 kPa
Settings	x1 = 0.1008	x1 = 0.1995	x1 = 0.2999	x1 = 0.4015	x1 = 0.5012	x1 = 0.6016	x1 = 0.7016	x1 = 0.8003	x1 = 0.9016
303.15 K	1.608	1.532	1.502	1.494	1.502	1.527	1.551	1.61	1.688
308.15 K	1.433	1.37	1.345	1.337	1.347	1.368	1.392	1.446	1.512
313.15 K	1.29	1.235	1.21	1.204	1.219	1.235	1.26	1.306	1.347
318.15 K	1.161	1.116	1.096	1.092	1.097	1.123	1.145	1.188	1.247
323.15 K	1.051	1.01	1	0.9995	1.012	1.026	1.047	1.091	1.142

COC(=O)OC + CCCO
101.3 kPa
Settings	viscosity [mPa·s]
293.15 K, x1 = 0.0508	1.875
293.15 K, x1 = 0.0875	1.683
293.15 K, x1 = 0.1647	1.362
293.15 K, x1 = 0.2944	1.024
293.15 K, x1 = 0.3858	0.885
293.15 K, x1 = 0.544	0.751
293.15 K, x1 = 0.6026	0.716
293.15 K, x1 = 0.7041	0.666
293.15 K, x1 = 0.89	0.61
293.15 K, x1 = 0.9015	0.606
293.15 K, x1 = 0.951	0.608
298.15 K, x1 = 0.0517	1.675
298.15 K, x1 = 0.0898	1.493
298.15 K, x1 = 0.1903	1.147
298.15 K, x1 = 0.2896	0.936
298.15 K, x1 = 0.3944	0.803
298.15 K, x1 = 0.498	0.725
298.15 K, x1 = 0.5993	0.673
298.15 K, x1 = 0.7016	0.631
298.15 K, x1 = 0.8007	0.598
298.15 K, x1 = 0.8994	0.579
298.15 K, x1 = 0.949	0.576
303.15 K, x1 = 0.0728	1.404
303.15 K, x1 = 0.0829	1.367
303.15 K, x1 = 0.184	1.072
303.15 K, x1 = 0.2605	0.919
303.15 K, x1 = 0.3758	0.769
303.15 K, x1 = 0.4849	0.685
303.15 K, x1 = 0.6278	0.613
303.15 K, x1 = 0.7071	0.594
303.15 K, x1 = 0.8061	0.569
303.15 K, x1 = 0.9018	0.554
303.15 K, x1 = 0.9507	0.542
313.15 K, x1 = 0.0498	1.198
313.15 K, x1 = 0.0973	1.066
313.15 K, x1 = 0.1985	0.86
313.15 K, x1 = 0.3015	0.721
313.15 K, x1 = 0.4025	0.639
313.15 K, x1 = 0.5021	0.584
313.15 K, x1 = 0.6029	0.546
313.15 K, x1 = 0.7038	0.521
313.15 K, x1 = 0.8033	0.5
313.15 K, x1 = 0.9073	0.489
313.15 K, x1 = 0.951	0.489

COCCOCCOC + CCCOC(C)=O
viscosity [mPa·s], 101.3 kPa
Settings	298.15 K	308.15 K	318.15 K
x1 = 0.0296	0.567	0.499	0.447
x1 = 0.076	0.586	0.515	0.46
x1 = 0.0957	0.594	0.521	0.467
x1 = 0.1388	0.611	0.534	0.478
x1 = 0.1878	0.633	0.551	0.492
x1 = 0.2478	0.656	0.572	0.508
x1 = 0.3236	0.688	0.597	0.528
x1 = 0.3893	0.716	0.619	0.544
x1 = 0.4382	0.736	0.635	0.557
x1 = 0.5153	0.769	0.662	0.579
x1 = 0.5945	0.805	0.691	0.603
x1 = 0.6605	0.835	0.715	0.626
x1 = 0.735	0.87	0.744	0.648
x1 = 0.7756	0.888	0.759	0.659
x1 = 0.8324	0.916	0.779	0.676
x1 = 0.8696	0.933	0.793	0.687
x1 = 0.9082	0.954	0.808	0.699
x1 = 0.9425	0.97	0.822	0.71
x1 = 0.9777	0.988	0.835	0.722
x2 = 0.0101	–	–	0.725
x2 = 0.0103	0.991	0.84	–

CCCCCCN + CCN(CC)CC
viscosity [mPa·s], 101.33 kPa
Settings	x2 = 0.1014	x2 = 0.1952	x2 = 0.3807	x2 = 0.4897	x2 = 0.5912	x2 = 0.7898	x2 = 0.8946
303.15 K	0.6552	0.6088	0.5322	0.4934	0.4613	0.407	0.3827
313.15 K	0.5654	0.5278	0.4639	0.4323	0.4027	0.3627	0.3436

CCCO + CCO
101 kPa
Settings	viscosity [mPa·s]
293.15 K, x2 = 0.5	1.564
293.15 K, x2 = 0.75	1.34
298.15 K, x2 = 0.158	1.759
298.15 K, x2 = 0.25	1.64
298.15 K, x2 = 0.303	1.64
298.15 K, x2 = 0.439	1.522
298.15 K, x2 = 0.5	1.407
298.15 K, x2 = 0.566	1.408
298.15 K, x2 = 0.684	1.319
298.15 K, x2 = 0.796	1.233
298.15 K, x2 = 0.902	1.169
303.15 K, x2 = 0.25	1.47
303.15 K, x2 = 0.5	1.26
308.15 K, x2 = 0.25	1.314
308.15 K, x2 = 0.5	1.139
308.15 K, x2 = 0.75	0.99
313.15 K, x2 = 0.25	1.183
313.15 K, x2 = 0.5	1.032
313.15 K, x2 = 0.75	0.903
318.15 K, x2 = 0.5	0.938
318.15 K, x2 = 0.75	0.824
323.15 K, x2 = 0.25	0.969
323.15 K, x2 = 0.5	0.854
323.15 K, x2 = 0.75	0.755
